Key:
[1] = tested on: HeLa cells; assay: 35S-methionine incorporation (protein synthesis) in HeLa cells; type: cell-based
Procedure: FIG. 4. Effect of hippuristanol on protein, RNA and DNA synthesis in cells. A. Relative rate of ^35S-methionine incorporation as a function of hippuristanol concentration in HeLa cells. Cells were exposed to the indicated concentration of compound for 50 min., followed by a 10 min. labeling period with ^35S-methionine in the presence of compound. The rate of protein synthesis (TCA precipitable cpm) obtained in the presence of compound was normalized to the rate obtained in the presence of DMSO (which was set at 1). The rate of protein synthesis in the control reactions (containing DMSO vehicle) averaged ˜700,000 cpm/10 min. labeling period. Results are shown for two experiments and the error of the mean is presented. The relative rate of ^35S-methionine incorporation in HeLa cells exposed to 10 μM anisomycin (positive control) for 60 min. was ˜0.02 (data not shown). B. Effect of hippuristanol on protein (gray circles), DNA (open squares), and RNA (solid squares) synthesis in HeLa cells. The rate of macromolecular synthesis (TCA precipitable cpm for a 10 min. labeling period) obtained in the presence of 1 μM hippuristanol was normalized to the rate obtained in the presence of DMSO and is plotted. The results are shown for two experiments and the error of the mean is presented. The rate of protein, RNA and DNA synthesis in the control reactions (containing DMSO vehicle) averaged ˜900,000 cpm/10 min, ˜16,000 cpm/10 min. and 7,000 cpm/10 min labeling, respectively. The relative rate of ^35S-methionine incorporation by HeLa cells exposed to 10 μM anisomycin for 60 min. (positive control for inhibition of protein synthesis) was 0.02 (data not shown). The relative rate of ^3H-uridine incorporation by HeLa cells exposed to 50 μM actinomycin (positive control for inhibition of RNA synthesis) for 60 min. was 0.01 (data not shown). C. […] Gradients were analyzed by piercing the tube with a Brandel tube piercer, passing 60% sucrose through the bottom of the tube, and monitoring the absorbance of the material eluting from the tube using an ISCO UA-6 UV Detector.

[2] = target: eIF4Ac (Homo sapiens, UniProt P60842); assay: UV crosslinking of alpha-32P-ATP to native eIF4F; type: binding; conditions: 50 μM
eIF4Ac, sequence (P60842 whole entry): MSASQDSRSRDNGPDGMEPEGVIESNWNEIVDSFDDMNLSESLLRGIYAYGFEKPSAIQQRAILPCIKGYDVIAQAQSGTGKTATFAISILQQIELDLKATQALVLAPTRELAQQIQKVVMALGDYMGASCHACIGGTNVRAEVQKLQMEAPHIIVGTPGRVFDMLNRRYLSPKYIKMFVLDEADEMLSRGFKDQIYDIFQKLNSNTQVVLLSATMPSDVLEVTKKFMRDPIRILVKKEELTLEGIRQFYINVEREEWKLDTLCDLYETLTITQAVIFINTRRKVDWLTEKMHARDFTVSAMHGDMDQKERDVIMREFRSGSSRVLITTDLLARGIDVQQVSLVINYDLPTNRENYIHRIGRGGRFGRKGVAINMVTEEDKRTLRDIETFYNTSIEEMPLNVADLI
eIF4Ac, sequence (P06730 whole entry partner): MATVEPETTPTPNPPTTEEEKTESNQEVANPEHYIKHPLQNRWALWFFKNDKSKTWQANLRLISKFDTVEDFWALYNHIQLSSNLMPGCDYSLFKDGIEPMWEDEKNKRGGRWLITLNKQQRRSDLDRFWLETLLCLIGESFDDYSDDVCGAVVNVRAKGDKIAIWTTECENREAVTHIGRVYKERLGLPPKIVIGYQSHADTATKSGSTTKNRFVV
eIF4Ac, sequence (Q04637 whole entry partner): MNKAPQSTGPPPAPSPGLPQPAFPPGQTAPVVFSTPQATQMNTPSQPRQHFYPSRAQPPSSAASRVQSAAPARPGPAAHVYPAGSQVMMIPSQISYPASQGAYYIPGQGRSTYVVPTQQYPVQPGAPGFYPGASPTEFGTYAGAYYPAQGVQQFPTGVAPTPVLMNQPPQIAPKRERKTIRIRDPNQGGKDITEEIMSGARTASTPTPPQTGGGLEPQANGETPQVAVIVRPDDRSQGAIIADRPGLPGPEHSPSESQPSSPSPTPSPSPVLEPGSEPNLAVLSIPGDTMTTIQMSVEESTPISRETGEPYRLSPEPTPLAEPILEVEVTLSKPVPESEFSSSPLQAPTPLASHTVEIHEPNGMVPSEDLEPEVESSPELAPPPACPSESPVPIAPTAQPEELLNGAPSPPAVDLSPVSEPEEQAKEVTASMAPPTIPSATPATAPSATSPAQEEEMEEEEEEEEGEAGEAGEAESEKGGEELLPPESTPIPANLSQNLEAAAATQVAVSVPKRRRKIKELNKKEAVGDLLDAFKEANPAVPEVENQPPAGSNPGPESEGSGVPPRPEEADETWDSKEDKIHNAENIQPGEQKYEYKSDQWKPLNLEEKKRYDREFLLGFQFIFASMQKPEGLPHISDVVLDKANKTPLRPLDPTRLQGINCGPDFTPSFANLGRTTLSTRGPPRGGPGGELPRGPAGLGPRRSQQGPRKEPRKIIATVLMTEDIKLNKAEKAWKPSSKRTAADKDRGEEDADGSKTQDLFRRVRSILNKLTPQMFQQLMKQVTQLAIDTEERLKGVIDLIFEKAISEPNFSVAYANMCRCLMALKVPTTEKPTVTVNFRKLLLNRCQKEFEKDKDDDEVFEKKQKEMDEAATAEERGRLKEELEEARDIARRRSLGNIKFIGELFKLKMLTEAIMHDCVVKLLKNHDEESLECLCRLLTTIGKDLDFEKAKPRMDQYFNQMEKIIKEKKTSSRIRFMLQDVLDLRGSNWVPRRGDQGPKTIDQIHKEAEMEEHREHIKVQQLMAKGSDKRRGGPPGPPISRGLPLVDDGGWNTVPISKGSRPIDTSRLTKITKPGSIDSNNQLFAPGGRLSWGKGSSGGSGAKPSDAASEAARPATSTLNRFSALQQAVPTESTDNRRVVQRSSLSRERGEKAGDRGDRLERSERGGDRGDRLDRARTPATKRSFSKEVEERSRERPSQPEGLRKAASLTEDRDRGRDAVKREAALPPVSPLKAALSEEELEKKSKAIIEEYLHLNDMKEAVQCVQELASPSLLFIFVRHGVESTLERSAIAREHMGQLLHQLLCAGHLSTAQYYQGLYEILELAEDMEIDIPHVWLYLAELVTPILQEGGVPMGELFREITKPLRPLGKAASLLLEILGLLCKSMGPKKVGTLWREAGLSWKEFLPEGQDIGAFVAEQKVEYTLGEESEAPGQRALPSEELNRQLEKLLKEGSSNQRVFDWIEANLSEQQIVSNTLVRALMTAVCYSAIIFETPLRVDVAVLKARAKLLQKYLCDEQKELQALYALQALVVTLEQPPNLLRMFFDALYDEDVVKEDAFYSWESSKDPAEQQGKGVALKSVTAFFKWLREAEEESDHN
Procedure: FIG. 7. Effects of hippuristanol on ATP hydrolysis, ATP binding, and RNA binding activities of eIF4A. A. Hippuristanol inhibits eIF4AIf RNA-dependent ATPase activity. The rate of ATP hydrolysis as a function of hippuristanol concentration is plotted relative to the rate obtained in the presence of vehicle (0.5% DMSO). ATP hydrolysis was measured in the presence of 2.5 μM poly (U) and monitored by thin layer chromatography. […] Samples were resolved by SDS-PAGE and subjected to autoradiography. C. The RNA binding activity of eIF4AIf is inhibited by hippuristanol. Oxidized ^32P-cap labeled CAT mRNA was incubated with recombinant eIF4AIf in the absence (lane 2) or presence of ATP (lanes 1, 3-6), 0.6 mM m^7GDP (lane 3), 0.6 mM GDP (lane 4), or 50 μM hippuristanol (lane 6). Following treatment with RNase A, samples were resolved by SDS-PAGE and subjected to autoradiography. The asterisk denotes the position of migration of a ˜30 kDa contaminant in the recombinant eIF4AIf preparation used as an internal loading reference. D. The RNA binding activity of eIF4Ac is inhibited by hippuristanol. Oxidized ^32P-cap labeled CAT mRNA was incubated with 0.7 μg of native eIF4F in the absence (lane 1) or presence (lane 2) of 50 μM hippuristanol. […]
Recombinant eIF4AI Purification and Assays. […] Quantifications were performed on a Fujix BAS2000 phosphoimager with a Fuji imaging screen. […]

C[C@H]1C[C@@]2(O[C@H]3C[C@H]4[C@@H]5CC[C@H]6C[C@H](O)CC[C@]6(C)[C@H]5[C@@H](O)C[C@]4(C)[C@H]3[C@@]2(C)O)OC1(C)C [Hippuristanol, hippuristanol]
eukaryotic protein synthesis (35S-methionine incorporation) ([1]; FIG. 4): inhibits | reversibility of the inhibitory effect on protein synthesis ([1]; HeLa cells, 1 μM for 60 min, then compound washed off): reversible | ATP crosslinking to eIF4Ac [2]: does not affect
